Assay results reported in patent US12139520B2 (priority 2020, dated 2024).
Numbered stars: 1 amine (or outer) side, 2 acyl side, 3 side chain; on linkers, the order of the positions; unused ones are H or OH. Bridge positions count the residues as written; N and C are the ends. Square brackets hold non-standard residues; d marks the D form. Peptide text beside a SMILES is read from it. * marks the point of attachment. C20 diacid = O=C(O)CCCCCCCCCCCCCCCCCCC(=O)*; γGlu = O=C(O)[C@H](CCC(=O)[*:2])N[*:1]; Hyp = O=C(O)[C@@H]1C[C@@H](O)CN1; Aib = CC(C)(N)C(=O)O

Assays:
[1] = molecular target: hAM1 receptor (Homo sapiens, UniProt O60895+Q16602); test: cAMP assay for in vitro receptor activation, hAM1-R; assay type: cell-based; settings: cAMP assay, hAM1 receptor; read-out: hAM1R EC50
Method in brief: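 Stable hAM1 cells (monoclonal) plated 8000/well; buffer DPBS, 0.05% casein, 0.5 mM IBMX; cAMP read-out.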

[2] = molecular target: T1, hAMY3 receptor (Homo sapiens, UniProt O60896+P30988); test: cAMP assay for in vitro receptor activation, hAMY3-R; assay type: cell-based; settings: cAMP assay, hAMY3 receptor; read-out: hAMY3R EC50
T1 sequence (P30988 25-474): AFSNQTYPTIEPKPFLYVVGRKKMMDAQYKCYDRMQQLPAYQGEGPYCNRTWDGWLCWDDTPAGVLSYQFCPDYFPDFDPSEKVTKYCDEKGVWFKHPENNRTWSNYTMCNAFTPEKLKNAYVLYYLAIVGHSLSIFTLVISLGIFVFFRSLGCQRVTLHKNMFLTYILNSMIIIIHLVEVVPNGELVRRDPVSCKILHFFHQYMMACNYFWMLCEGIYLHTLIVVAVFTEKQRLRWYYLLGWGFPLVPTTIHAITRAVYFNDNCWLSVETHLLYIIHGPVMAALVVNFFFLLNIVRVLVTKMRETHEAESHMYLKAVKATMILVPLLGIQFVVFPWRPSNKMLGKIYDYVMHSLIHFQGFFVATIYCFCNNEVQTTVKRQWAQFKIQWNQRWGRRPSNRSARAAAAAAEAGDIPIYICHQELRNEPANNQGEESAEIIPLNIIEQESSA
T1 sequence (O60896 24-148 partner): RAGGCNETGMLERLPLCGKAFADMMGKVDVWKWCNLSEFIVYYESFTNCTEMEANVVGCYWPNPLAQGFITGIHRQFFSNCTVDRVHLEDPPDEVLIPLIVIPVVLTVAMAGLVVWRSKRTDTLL
Method in brief: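 Stable hAMY3 cells; DPBS + 0.05% casein + 0.5 mM IBMX; graded compound doses, 30 min, RT; cAMP via HTRF Gs kit, TR-FRET read at 1 h.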

Sequence of hAM1 receptor (Q16602 23-461): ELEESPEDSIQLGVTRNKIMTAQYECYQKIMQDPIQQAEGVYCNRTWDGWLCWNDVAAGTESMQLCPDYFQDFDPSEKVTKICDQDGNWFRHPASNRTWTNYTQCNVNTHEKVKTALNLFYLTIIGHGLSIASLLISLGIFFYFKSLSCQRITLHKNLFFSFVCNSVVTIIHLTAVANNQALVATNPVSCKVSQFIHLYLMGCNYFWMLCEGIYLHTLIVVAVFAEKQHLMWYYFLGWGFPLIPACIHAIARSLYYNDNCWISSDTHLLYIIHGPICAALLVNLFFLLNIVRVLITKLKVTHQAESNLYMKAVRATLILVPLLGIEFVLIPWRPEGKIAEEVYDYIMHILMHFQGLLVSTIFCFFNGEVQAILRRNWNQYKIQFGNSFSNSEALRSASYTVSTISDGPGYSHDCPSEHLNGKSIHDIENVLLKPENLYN
Sequence of hAM1 receptor (O60895 43-175 partner): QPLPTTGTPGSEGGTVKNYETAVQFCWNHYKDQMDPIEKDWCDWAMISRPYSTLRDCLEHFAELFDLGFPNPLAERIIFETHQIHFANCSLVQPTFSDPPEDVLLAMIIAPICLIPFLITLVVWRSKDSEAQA

Row | Compound | EC50 [1] [nM] | EC50 [2] [nM]
1 | CC[C@H](C)[C@H](NC(=O)[C@H](CCC(N)=O)NC(=O)[C@H](CCC(=O)O)NC(=O)[C@H](C)NC(=O)[C@H](CC(C)C)NC(=O)[C@H](CCCNC(=N)N)NC(=O)[C@H](CCC(N)=O)NC(=O)[C@@H](NC(=O)[C@@H](NC(=O)[C@@H]1CSSC[C@H](NC(=O)[C@@H](N)CCCCN)C(=O)N[C@@H](CC(N)=O)C(=O)N[C@@H]([C@@H](C)O)C(=O)N[C@@H](C)C(=O)N[C@@H]([C@@H](C)O)C(=O)N1)[C@@H](C)O)C(C)C)C(=O)N[C@@H](Cc1ccc(O)cc1)C(=O)N[C@@H](CCC(N)=O)C(=O)N[C@@H](Cc1ccccc1)C(=O)N[C@H](C(=O)N[C@@H](CC(=O)O)C(=O)N[C@@H](CCCCN)C(=O)N[C@@H](CC(=O)O)C(=O)N[C@@H](CCCCN)C(=O)N[C@@H](CC(=O)O)C(=O)N[C@@H](CC(N)=O)C(=O)N[C@H](C(=O)N[C@@H](C)C(=O)N1CCC[C@H]1C(=O)N1CCC[C@H]1C(=O)N[C@@H](Cc1ccc(O)cc1)C(=O)N[C@@H](CC(N)=O)C(=O)N[C@@H](CCC(=O)O)C(=O)NCC(=O)N[C@@H](CO)C(=O)N[C@@H](CC(N)=O)C(=O)NCC(=O)N1C[C@H](O)C[C@H]1C(N)=O)C(C)C)[C@@H](C)O [compound 44] (H-KCNTATCTVQRLAEQIYQFTDKDKDNVAPPYNEGSNG[Hyp]-NH2; disulfide 2-7; N-terminus assumed) | > 5000 | 0.01
2 | CC[C@H](C)[C@H](NC(=O)[C@H](CCC(N)=O)NC(=O)[C@H](CCC(=O)O)NC(=O)[C@H](C)NC(=O)[C@H](CC(C)C)NC(=O)[C@H](CCCNC(=N)N)NC(=O)[C@H](CCC(N)=O)NC(=O)[C@@H](NC(=O)[C@@H](NC(=O)[C@@H]1CSSC[C@H](NC(=O)[C@H](CCCCN)NC(=O)CC[C@H](NC(=O)CCCCCCCCCCCCCCCCCCC(=O)O)C(=O)O)C(=O)N[C@@H](CC(N)=O)C(=O)N[C@@H]([C@@H](C)O)C(=O)N[C@@H](C)C(=O)N[C@@H]([C@@H](C)O)C(=O)N1)[C@@H](C)O)C(C)C)C(=O)N[C@@H](Cc1ccc(O)cc1)C(=O)N[C@@H](CCC(N)=O)C(=O)N[C@@H](Cc1ccccc1)C(=O)N[C@H](C(=O)N[C@@H](CC(=O)O)C(=O)N[C@@H](CCCCN)C(=O)N[C@@H](CC(=O)O)C(=O)N[C@@H](CCCCN)C(=O)N[C@@H](CC(=O)O)C(=O)N[C@@H](CC(N)=O)C(=O)N[C@H](C(=O)N[C@@H](C)C(=O)N1CCC[C@H]1C(=O)N1CCC[C@H]1C(=O)N[C@H](C(=O)N[C@@H](CCC(N)=O)C(=O)N[C@H](C(=O)NCC(=O)N[C@@H](CO)C(=O)N[C@@H](CC(N)=O)C(=O)NCC(=O)N1C[C@H](O)C[C@H]1C(N)=O)C(C)C)[C@@H](C)O)C(C)C)[C@@H](C)O [compound 73] ({C20 diacid-γGlu}-KCNTATCTVQRLAEQIYQFTDKDKDNVAPPTQVGSNG[Hyp]-NH2; disulfide 2-7) | > 5000 | 0.013
3 | CC[C@H](C)[C@H](NC(=O)[C@H](CCC(N)=O)NC(=O)[C@H](Cc1c[nH]cn1)NC(=O)[C@H](C)NC(=O)[C@H](CC(C)C)NC(=O)[C@H](CCCNC(=N)N)NC(=O)[C@H](CCC(N)=O)NC(=O)[C@@H](NC(=O)[C@@H](NC(=O)[C@@H]1CSSC[C@H](NC(=O)[C@H](CCCCN)NC(=O)CC[C@H](NC(=O)CCCCCCCCCCCCCCCCCCC(=O)O)C(=O)O)C(=O)N[C@@H](CC(N)=O)C(=O)N[C@@H]([C@@H](C)O)C(=O)N[C@@H](C)C(=O)N[C@@H]([C@@H](C)O)C(=O)N1)[C@@H](C)O)C(C)C)C(=O)N[C@@H](C)C(=O)N[C@@H](CCC(N)=O)C(=O)N[C@@H](Cc1ccc(O)cc1)C(=O)N[C@H](C(=O)N[C@@H](CC(=O)O)C(=O)N[C@@H](CCCCN)C(=O)N[C@@H](CC(=O)O)C(=O)N[C@@H](CCCCN)C(=O)N[C@@H](CC(=O)O)C(=O)N[C@@H](CC(N)=O)C(=O)N[C@H](C(=O)N[C@@H](C)C(=O)N1CCC[C@H]1C(=O)N1CCC[C@H]1C(=O)N[C@H](C(=O)N[C@@H](CC(N)=O)C(=O)N[C@H](C(=O)NCC(=O)N[C@@H](CO)C(=O)N[C@@H](CC(N)=O)C(=O)NCC(=O)N1C[C@H](O)C[C@H]1C(N)=O)C(C)C)[C@@H](C)O)C(C)C)[C@@H](C)O [compound 71] ({C20 diacid-γGlu}-KCNTATCTVQRLAHQIAQYTDKDKDNVAPPTNVGSNG[Hyp]-NH2; disulfide 2-7) | > 5000 | 0.013

The next lines start with the values.

Row | EC50 [1] [nM] | EC50 [2] [nM] | Compound
4 | > 5000 | 0.024 | CC[C@H](C)[C@H](NC(=O)[C@H](CCC(N)=O)NC(=O)[C@H](Cc1c[nH]cn1)NC(=O)[C@H](C)NC(=O)[C@H](CC(C)C)NC(=O)[C@H](CCCNC(=N)N)NC(=O)[C@H](CCC(N)=O)NC(=O)[C@@H](NC(=O)[C@@H](NC(=O)[C@@H]1CSSC[C@H](NC(=O)[C@H](CCCCN)NC(=O)CC[C@H](NC(=O)CCCCCCCCCCCCCCCCCCC(=O)O)C(=O)O)C(=O)N[C@@H](CC(N)=O)C(=O)N[C@@H]([C@@H](C)O)C(=O)NC(C)(C)C(=O)N[C@@H]([C@@H](C)O)C(=O)N1)[C@@H](C)O)C(C)C)C(=O)N[C@@H](Cc1ccc(O)cc1)C(=O)N[C@@H](CCC(N)=O)C(=O)N[C@@H](Cc1ccccc1)C(=O)N[C@H](C(=O)N[C@@H](CC(=O)O)C(=O)N[C@@H](CCCCN)C(=O)N[C@@H](CC(=O)O)C(=O)N[C@@H](CCCCN)C(=O)N[C@@H](CC(=O)O)C(=O)N[C@@H](CC(N)=O)C(=O)N[C@H](C(=O)N[C@@H](C)C(=O)N1CCC[C@H]1C(=O)N1CCC[C@H]1C(=O)N[C@H](C(=O)N[C@@H](CC(N)=O)C(=O)N[C@H](C(=O)NCC(=O)N[C@@H](CO)C(=O)N[C@@H](CC(N)=O)C(=O)NCC(=O)N1C[C@H](O)C[C@H]1C(N)=O)C(C)C)[C@@H](C)O)C(C)C)[C@@H](C)O [compound 119] ({C20 diacid-γGlu}-KCNT[Aib]TCTVQRLAHQIYQFTDKDKDNVAPPTNVGSNG[Hyp]-NH2; disulfide 2-7)
5 | > 5000 | 0.014 | CC[C@H](C)[C@H](NC(=O)[C@H](CCC(N)=O)NC(=O)[C@H](Cc1c[nH]cn1)NC(=O)[C@H](C)NC(=O)[C@H](CC(C)C)NC(=O)[C@H](CCCNC(=N)N)NC(=O)[C@H](CCC(N)=O)NC(=O)[C@@H](NC(=O)[C@@H](NC(=O)[C@@H]1CSSC[C@H](NC(=O)[C@H](CCCCN)NC(=O)CC[C@H](NC(=O)CCCCCCCCCCCCCCCCCCC(=O)O)C(=O)O)C(=O)N[C@@H](CC(N)=O)C(=O)N[C@@H]([C@@H](C)O)C(=O)N[C@@H](C)C(=O)N[C@@H]([C@@H](C)O)C(=O)N1)[C@@H](C)O)C(C)C)C(=O)N[C@@H](Cc1ccc(O)cc1)C(=O)N[C@@H](CCC(N)=O)C(=O)N[C@@H](Cc1ccccc1)C(=O)N[C@H](C(=O)N[C@@H](CC(=O)O)C(=O)N[C@@H](CCCCN)C(=O)N[C@@H](CC(=O)O)C(=O)N[C@@H](CCCCN)C(=O)N[C@@H](CC(=O)O)C(=O)N[C@@H](CC(N)=O)C(=O)N[C@H](C(=O)N[C@@H](C)C(=O)N1CCC[C@H]1C(=O)N1CCC[C@H]1C(=O)N[C@H](C(=O)N[C@@H](CC(N)=O)C(=O)N[C@H](C(=O)NCC(=O)N[C@@H](CO)C(=O)N[C@@H](CC(N)=O)C(=O)NCC(=O)N1C[C@H](O)C[C@H]1C(N)=O)C(C)C)[C@@H](C)O)C(C)C)[C@@H](C)O [compound 77] ({C20 diacid-γGlu}-KCNTATCTVQRLAHQIYQFTDKDKDNVAPPTNVGSNG[Hyp]-NH2; disulfide 2-7)
6 | > 5000 | 0.019 | CC[C@H](C)[C@H](NC(=O)[C@H](CCC(N)=O)NC(=O)[C@H](CCC(=O)O)NC(=O)[C@H](C)NC(=O)[C@H](CC(C)C)NC(=O)[C@H](CCCNC(=N)N)NC(=O)[C@H](CCC(N)=O)NC(=O)[C@@H](NC(=O)[C@@H](NC(=O)[C@@H]1CSSC[C@H](NC(=O)[C@H](CCCCN)NC(=O)CC[C@H](NC(=O)CCCCCCCCCCCCCCCCCCC(=O)O)C(=O)O)C(=O)N[C@@H](CC(N)=O)C(=O)N[C@@H]([C@@H](C)O)C(=O)N[C@@H](C)C(=O)N[C@@H]([C@@H](C)O)C(=O)N1)[C@@H](C)O)C(C)C)C(=O)N[C@@H](Cc1ccc(O)cc1)C(=O)N[C@@H](CCC(N)=O)C(=O)N[C@@H](Cc1ccccc1)C(=O)N[C@H](C(=O)N[C@@H](CC(=O)O)C(=O)N[C@@H](CCCCN)C(=O)N[C@@H](CC(=O)O)C(=O)N[C@@H](CCCCN)C(=O)N[C@@H](C)C(=O)N[C@@H](CC(N)=O)C(=O)N[C@H](C(=O)N[C@@H](C)C(=O)N1CCC[C@H]1C(=O)N1CCC[C@H]1C(=O)N[C@H](C(=O)N[C@@H](CC(N)=O)C(=O)N[C@H](C(=O)NCC(=O)N[C@@H](CO)C(=O)N[C@@H](CC(N)=O)C(=O)NCC(=O)N1C[C@H](O)C[C@H]1C(N)=O)C(C)C)[C@@H](C)O)C(C)C)[C@@H](C)O [compound 108] ({C20 diacid-γGlu}-KCNTATCTVQRLAEQIYQFTDKDKANVAPPTNVGSNG[Hyp]-NH2; disulfide 2-7)
